In PMC9919437 (Molecules, 2023):
“Also recorded” adds a separate entry of the source.

What was measured:
[1] = Water solubility; format: physicochemical; conditions: fully soluble at least up to
[2] = biological target: BC2L-C-Nt; set-up: method as in PMID 36174276; conditions: SPR, BC2L-C-Nt immobilized on CM5 chip; said not to correlate with ITC; read-out: apparent Kd; cited from earlier work
[3] = set-up: method as in PMID 36174276; conditions: cited from earlier work
[4] = biological target: the molecule itself; experiment: crystal structure; hexagonal crystal form (P6_3), one protomer in the asymmetric unit, trimer by the 3-fold crystallographic symmetry; cocrystals with H-type 1 oligosaccharide soaked with 3 mM compound 3 in 2.47 M sodium malonate pH 7.0 for 48 h at 19 °C

C[C@@H]1O[C@H](NC(=O)c2ccco2)[C@@H](O)[C@H](O)[C@@H]1O [compound 17, Furan-2-carboxamido-β-L-fucopyranose]
solubility [1]: ≥ 2000 µM

C[C@@H]1O[C@H](NC(=O)c2ccc(-c3cccc(N)c3)o2)[C@@H](O)[C@H](O)[C@@H]1O [compound 2]
Kd [2]: 2400 µM
water solubility (in words) [3]: very low water solubility; also recorded: water-insoluble

NCc1cccc(-c2ccc(C(=O)NC3OC(CO)C(O)C(O)C3O)o2)c1 (stereo not drawn) [compound 4]
solubility [1]: ≥ 2000 µM

C[C@@H]1O[C@H](NC(=O)c2ccc(-c3cccc(CN)c3)o2)[C@@H](O)[C@H](O)[C@@H]1O [compound 3]
solubility [1]: ≥ 2000 µM

B1: N-terminal domain of the lectin BC2L-C from Burkholderia cenocepacia (domain or fragment)
chain: MPLLSASIVSAPVVTSETYVDIPGLYLDVAKAGIRDGKLQVILNVPTPYATGNNFPGIYFAIATNQGVVADGCFTYSSKVPESTGRMPFTLVATIDVGSGVTFVKGQWKSVRGSAMHIDSYASLSAIWGTAA
notes: also called BC2L-C-Nt; BC2L-C N-terminal domain; not shown: expression tag, N-terminal, cleaved
stoichiometry N [4]: 3
